Laboratory results published in US9770045B2, “Preservation of animal feed and hydrolysis of polysaccharides using amino acids as salts or with acids” (priority 2015, dated 2017).
Structures can show the parent of a compound that is named as a salt.

Assays:
[1] = Cellulose (carboxymethylcellulose) hydrolysis, DNS sugar assay; conditions: carboxymethylcellulose (FIG. 2, FIG. 5)
Description: Dinitrosalicyclic Acid Sugar Assay. The DNS sugar assay utilizes the reduction of dinitrosalicyclic acid by simple monosaccharides to create a change in color, respective the concentration of sugar in each sample (Rivers). A 1% dinitrosalicyclic acid solution was created with 0.25 M NaOH and […]. Another solution of 40% Sodium Potassium Tartrate was made to act as a color stabilizer to be added to the sample after the reaction. This procedure requires the experimental sample to be mixed with the DNS Assay solution and heated at approximately 100° C. for ten minutes. After the colorimetric reaction has occurred, the sodium potassium tartrate solution is added to stabilize the color change. The resulting color change can be measured using the wavelength of 570 nm.
Cellulose Hydrolysis. 5 mL of each acid was added to a glass container. Then, 0.1 grams of carboxymethylcellulose was slowly poured in to each sample. The containers were then capped and placed in a 60° C. incubator. At specific time intervals, 0.4 mL were taken and neutralized by 0.6 mL of a strong KOH solution to a pH above 10 in 1.5 mL microfuge tubes. Then 0.2 mL of the DNS Assay solution was added to each sample, which were then placed in a boiling water bath for ten minutes. […] The absorbance of the samples were then measured at 570 nm in a UV-Vis spectrophotometer and compared to a standard curve.

[2] = 60° C., one hour (FIG. 3)
Description: (§1) Seaweed Hydrolysis. […] The samples were heated to 60° C. Approximately 0.1 grams of seaweed was measured and added to each sample. The acid/seaweed mixtures were placed in an incubator set at 60° C. for one hour. At twenty minute intervals, 0.4 mL were taken from the samples and neutralized to a high pH (>10) with 0.6 mL of a concentrated aqueous NaOH solution.
(§2) Seaweed DNS Assay. To each of the neutralized mixtures, 0.2 mL of DNS solution (1% dinitrosalicyclic acid, 0.02% phenol, 0.25 M NaOH) was added. These samples were then placed in boiling water for approximately ten minutes until the brown color remained stable. The samples were then removed and 0.4 mL of a 40% potassium sodium tartrate solution was added to stabilize the color. The solutions were allowed to cool to room temperature and then the absorbance was recorded at 570 nm.

[3] = for rate in hydrolyzing switch grass: 60° C., one hour (FIG. 4)
Description: as §1, with “Switch Grass” for “Seaweed”, “switch grass” for “seaweed”, “acid/switch grass” for “acid/seaweed”, “0, 10, 20, 40, and 60 minutes,” for “twenty minute intervals,”
as §2, with “Switch Grass” for “Seaweed”, “Then 0.2 mL of each sample was mixed with 0.2” for “The samples were then removed and 0.4”, “and 1 mL of deionized water.” for “was added to stabilize the color.”

SMILES: NCC(=O)O [6M Glycine—HCl, glycine hydrochloride]
- hydrolysis rate [1]: equal to that of Oil Safe AR®
- rate in hydrolyzing seaweed [2]: about the same rate
- rate in hydrolyzing switch grass [3]: about the same rate
- pH change after switch grass hydrolysis [3]: lowered

SMILES: Cl [6M HCl, hydrochloric acid, reference compound]
- rate in hydrolyzing seaweed [2]: about the same rate
- rate in hydrolyzing switch grass [3]: about the same rate
- pH change after switch grass hydrolysis [3]: increased
